In ChEMBL document CHEMBL3885881, “DrugMatrix”:
Where “and” joins values, the source holds several entries; their conditions need not be identical. Equal values may be shown once.

Organism: Rattus norvegicus
Assay: DrugMatrix - Regimen: Daily Repeat
Assay type: toxicity, organism-based, Sprague-Dawley
Parameters: regimen Daily Repeat, gender Male, age 6-8 weeks
Details: in vivo, iv; for ABSOLUTE BASOPHIL / ABSOLUTE EOSINOPHIL / ABSOLUTE LYMPHOCYTE / ABSOLUTE MONOCYTE / ABSOLUTE SEGMENTED NEUTROPHIL / BASOPHIL / EOSINOPHIL / ERYTHROCYTE COUNT / HEMATOCRIT / HEMOGLOBIN / LEUKOCYTE COUNT / LYMPHOCYTE / MEAN CORPUSCULAR HEMOGLOBIN / MEAN CORPUSCULAR HEMOGLOBIN CONCENTRATION / MEAN CORPUSCULAR VOLUME / MONOCYTE / NEUTROPHIL / NUCLEATED RED BLOOD CELLS / PLATELET COUNT: tissue Blood; for ALANINE AMINOTRANSFERASE / ALBUMIN / ALKALINE PHOSPHATASE / ASPARTATE AMINOTRANSFERASE / BLOOD UREA NITROGEN / CARBON DIOXIDE / CHLORIDE / CHOLESTEROL / CREATINE PHOSPHOKINASE / CREATININE / GLUCOSE / LACTATE DEHYDROGENASE / LIPASE / PHOSPHORUS / POTASSIUM / SODIUM / TOTAL BILIRUBIN / TOTAL PROTEIN / URIC ACID: tissue Plasma
[1] = 0 mg/kg, 72 h, dose level Control, time 3 day, vehicle 100 % SALINE
[2] = 0 mg/kg, 120 h, dose level Control, time 5 day, vehicle 10 % DMSO/SALINE
[3] = 0 mg/kg, 120 h, dose level Control, time 5 day, vehicle 100 % SALINE
[4] = 0 mg/kg, […], dose level Control, time 14 day, vehicle 100 % SALINE
[5] = 4 mg/kg, 120 h, dose level High, time 5 day, vehicle 10 % DMSO/SALINE

CC(=O)[C@]1(O)Cc2c(O)c3c(c(O)c2[C@@H](O[C@H]2C[C@H](N)[C@H](O)[C@H](C)O2)C1)C(=O)c1ccccc1C3=O [IDARUBICIN]
ABSOLUTE BASOPHIL [1]: 0 CELLS/uL
ABSOLUTE EOSINOPHIL [1]: 247.67 CELLS/uL
ABSOLUTE LYMPHOCYTE [1]: 13190.83 CELLS/uL
ABSOLUTE MONOCYTE [1]: 307.67 CELLS/uL
ABSOLUTE SEGMENTED NEUTROPHIL [1]: 1220.5 CELLS/uL
BASOPHIL [1]: 0%
EOSINOPHIL [1]: 1.67%
ERYTHROCYTE COUNT [1]: 5.47 x10E6/uL
HEMATOCRIT [1]: 33.98%
HEMOGLOBIN [1]: 12.65 G/DL
LEUKOCYTE COUNT [1]: 14.97 x10E3/uL
LYMPHOCYTE [1]: 88.17%
MEAN CORPUSCULAR HEMOGLOBIN [1]: 23.17 pg
MEAN CORPUSCULAR HEMOGLOBIN CONCENTRATION [1]: 37.23 G/DL
MEAN CORPUSCULAR VOLUME [1]: 62.25 fL
MONOCYTE [1]: 2%
NEUTROPHIL [1]: 8.17%
NUCLEATED RED BLOOD CELLS [1]: 0 /100WBC
PLATELET COUNT [1]: 1307.17 x10E3/uL
ALANINE AMINOTRANSFERASE [1]: 39.67 u/L
ALBUMIN [1]: 4.08 G/DL
ALKALINE PHOSPHATASE [1]: 383.17 u/L
ASPARTATE AMINOTRANSFERASE [1]: 88.83 u/L
BLOOD UREA NITROGEN [1]: 18.5 mg/dL
CARBON DIOXIDE [1]: 27.5 mmol/L
CHLORIDE [1]: 103 MEQ/L
CHOLESTEROL [1]: 67.33 mg/dL
CREATINE PHOSPHOKINASE [1]: 414.67 u/L
CREATININE [1]: 0.19 mg/dL
GLUCOSE [1]: 149.33 mg/dL
LACTATE DEHYDROGENASE [1]: 536.83 u/L
LIPASE [1]: 8.83 u/L
PHOSPHORUS [1]: 11.13 mg/dL
POTASSIUM [1]: 6.23 MEQ/L
SODIUM [1]: 144.42 MEQ/L
TOTAL BILIRUBIN [1]: 0.18 mg/dL
TOTAL PROTEIN [1]: 5.57 G/DL
URIC ACID [1]: 1.23 mg/dL
BASOPHIL [2]: 0.28%
EOSINOPHIL [2]: 0.55%
ERYTHROCYTE COUNT [2]: 7.09 x10E6/uL
HEMATOCRIT [2]: 45.85%
HEMOGLOBIN [2]: 14.93 G/DL
LEUKOCYTE COUNT [2]: 7.4 x10E3/uL
LYMPHOCYTE [2]: 84.22%
MEAN CORPUSCULAR HEMOGLOBIN [2]: 21.05 pg
MEAN CORPUSCULAR HEMOGLOBIN CONCENTRATION [2]: 32.5 G/DL
MEAN CORPUSCULAR VOLUME [2]: 64.72 fL
MONOCYTE [2]: 1.4%
NEUTROPHIL [2]: 12.45%
PLATELET COUNT [2]: 1476.75 x10E3/uL
ABSOLUTE SEGMENTED NEUTROPHIL [3]: 1104.67 CELLS/uL
BASOPHIL [3]: 1.05% and 0%
EOSINOPHIL [3]: 0.23% and 1%
ERYTHROCYTE COUNT [3]: 6.68 x10E6/uL and 5.73 x10E6/uL
HEMATOCRIT [3]: 42.27% and 36.85%
HEMOGLOBIN [3]: 13 G/DL and 13.67 G/DL
LEUKOCYTE COUNT [3]: 19.36 x10E3/uL and 15.13 x10E3/uL
LYMPHOCYTE [3]: 62.82% and 89.5%
MEAN CORPUSCULAR HEMOGLOBIN [3]: 19.43 pg and 23.87 pg
MEAN CORPUSCULAR HEMOGLOBIN CONCENTRATION [3]: 30.68 G/DL and 37.1 G/DL
MEAN CORPUSCULAR VOLUME [3]: 63.25 fL and 64.33 fL
MONOCYTE [3]: 3.45% and 2.33%
NUCLEATED RED BLOOD CELLS [3]: 0.17 /100WBC
PLATELET COUNT [3]: 1275.5 x10E3/uL and 1266 x10E3/uL
ALANINE AMINOTRANSFERASE [2]: 21.25 u/L
ALBUMIN [2]: 4.28 G/DL
ALKALINE PHOSPHATASE [2]: 337.5 u/L
ASPARTATE AMINOTRANSFERASE [2]: 87.25 u/L
BLOOD UREA NITROGEN [2]: 13 mg/dL
CARBON DIOXIDE [2]: 27 mmol/L
CHLORIDE [2]: 106.75 MEQ/L
CHOLESTEROL [2]: 54.5 mg/dL
CREATINE PHOSPHOKINASE [2]: 424.75 u/L
CREATININE [2]: 0.47 mg/dL
GLUCOSE [2]: 135.75 mg/dL
LACTATE DEHYDROGENASE [2]: 200.25 u/L
LIPASE [2]: 9 u/L
PHOSPHORUS [2]: 11.62 mg/dL
POTASSIUM [2]: 5.58 MEQ/L
SODIUM [2]: 150.5 MEQ/L
TOTAL BILIRUBIN [2]: 0.25 mg/dL
TOTAL PROTEIN [2]: 6.33 G/DL
URIC ACID [2]: 1.75 mg/dL
ALANINE AMINOTRANSFERASE [3]: 62.75 u/L and 49.17 u/L
ALBUMIN [3]: 3.2 G/DL and 4.22 G/DL
ALKALINE PHOSPHATASE [3]: 320.75 u/L and 352.67 u/L
ASPARTATE AMINOTRANSFERASE [3]: 112.25 u/L and 95.17 u/L
BLOOD UREA NITROGEN [3]: 14.25 mg/dL and 18.83 mg/dL
CARBON DIOXIDE [3]: 36.25 mmol/L and 25.67 mmol/L
CHLORIDE [3]: 106.25 MEQ/L and 102.67 MEQ/L
CHOLESTEROL [3]: 63.5 mg/dL and 66.83 mg/dL
CREATINE PHOSPHOKINASE [3]: 757.75 u/L and 550.33 u/L
CREATININE [3]: 0.23 mg/dL
GLUCOSE [3]: 175.5 mg/dL and 186.17 mg/dL
LACTATE DEHYDROGENASE [3]: 205.25 u/L and 471.33 u/L
PHOSPHORUS [3]: 11.35 mg/dL and 12.3 mg/dL
POTASSIUM [3]: 6.7 MEQ/L and 6.35 MEQ/L
SODIUM [3]: 151.25 MEQ/L and 143.57 MEQ/L
TOTAL BILIRUBIN [3]: 0.2 mg/dL and 0.18 mg/dL
TOTAL PROTEIN [3]: 5.78 G/DL and 6.05 G/DL
URIC ACID [3]: 1.23 mg/dL and 2 mg/dL
ABSOLUTE BASOPHIL [4]: 400 cells/µL
ABSOLUTE EOSINOPHIL [4]: 46.7 cells/µL
ABSOLUTE LYMPHOCYTE [4]: 18600 cells/µL
ABSOLUTE MONOCYTE [4]: 760 cells/µL
BASOPHIL [4]: 1.73%
EOSINOPHIL [4]: 0.2%
ERYTHROCYTE COUNT [4]: 7.04 x10E6/uL
HEMATOCRIT [4]: 41.83%
HEMOGLOBIN [4]: 13.07 G/DL
LEUKOCYTE COUNT [4]: 24.9 x10E3/uL
LYMPHOCYTE [4]: 74.43%
MEAN CORPUSCULAR HEMOGLOBIN [4]: 18.63 pg
MEAN CORPUSCULAR HEMOGLOBIN CONCENTRATION [4]: 31.33 G/DL
MEAN CORPUSCULAR VOLUME [4]: 59.43 fL
MONOCYTE [4]: 3.13%
NEUTROPHIL [4]: 18.97%
PLATELET COUNT [4]: 1314.33 x10E3/uL
ALANINE AMINOTRANSFERASE [4]: 42.67 u/L
ALBUMIN [4]: 3.6 G/DL
ALKALINE PHOSPHATASE [4]: 298 u/L
ASPARTATE AMINOTRANSFERASE [4]: 67.33 u/L
BLOOD UREA NITROGEN [4]: 14.33 mg/dL
CARBON DIOXIDE [4]: 41.67 mmol/L
CHLORIDE [4]: 102.67 MEQ/L
CHOLESTEROL [4]: 62.67 mg/dL
CREATINE PHOSPHOKINASE [4]: 338.67 u/L
CREATININE [4]: 0.7 mg/dL
GLUCOSE [4]: 147.33 mg/dL
LACTATE DEHYDROGENASE [4]: 94.33 u/L
LIPASE [4]: 80 u/L
PHOSPHORUS [4]: 9.6 mg/dL
POTASSIUM [4]: 6.67 MEQ/L
SODIUM [4]: 148 MEQ/L
TOTAL BILIRUBIN [4]: 0.2 mg/dL
TOTAL PROTEIN [4]: 6.67 G/DL
URIC ACID [4]: 1.03 mg/dL
BASOPHIL [5]: 0.8%
EOSINOPHIL [5]: 2.95%
ERYTHROCYTE COUNT [5]: 7.46 x10E6/uL
HEMATOCRIT [5]: 47.3%
HEMOGLOBIN [5]: 15.42 G/DL
LEUKOCYTE COUNT [5]: 0.0975 x10E3/uL
LYMPHOCYTE [5]: 69%
MEAN CORPUSCULAR HEMOGLOBIN [5]: 20.73 pg
MEAN CORPUSCULAR HEMOGLOBIN CONCENTRATION [5]: 32.67 G/DL
MEAN CORPUSCULAR VOLUME [5]: 63.45 fL
MONOCYTE [5]: 1.3%
NEUTROPHIL [5]: 23.9%
PLATELET COUNT [5]: 879.25 x10E3/uL
ALANINE AMINOTRANSFERASE [5]: 11.75 u/L
ALBUMIN [5]: 2.88 G/DL
ALKALINE PHOSPHATASE [5]: 156 u/L
ASPARTATE AMINOTRANSFERASE [5]: 63.5 u/L
BLOOD UREA NITROGEN [5]: 18 mg/dL
CARBON DIOXIDE [5]: 25 mmol/L
CHLORIDE [5]: 112 MEQ/L
CHOLESTEROL [5]: 152.75 mg/dL
CREATINE PHOSPHOKINASE [5]: 475.25 u/L
CREATININE [5]: 0.5 mg/dL
GLUCOSE [5]: 116.5 mg/dL
LACTATE DEHYDROGENASE [5]: 183.5 u/L
LIPASE [5]: 13 u/L
PHOSPHORUS [5]: 9.47 mg/dL
POTASSIUM [5]: 5.03 MEQ/L
SODIUM [5]: 151 MEQ/L
TOTAL BILIRUBIN [5]: 0.2 mg/dL
TOTAL PROTEIN [5]: 4.57 G/DL
URIC ACID [5]: 1.45 mg/dL
